Measured values from patent publication US11541029B2, “High penetration compositions and their applications” (Techfields Pharma Co., Ltd., priority 2008, dated 2023).

Columns and labels:
Solubility in water = assay type: physicochemical
Experimental: 30 g (0.1 mol) of sodium 9-cis-retinoate was dissolved in 100 ml of acetonitrile. 26.1 g (0.1 mol) of 2-Bromo-N,N-diethylethylamine.HBr was added into the reaction mixture. The mixture was stirred for overnight at RT. The solvents were evaporated off. 200 ml of ethanol was added into the residue. The solid was removed by filtration. The solution was evaporated to dryness. 100 ml of ethyl acetate was added into the reaction mixture. Hexane (100 ml) was added. The solid product was collected by filtration. After drying, it yielded 36 g of the desired product (75%).

[1] = Fluorescence microscopy of HPC crossing rat skin, brain and other organs; assay type: in vivo; details: 15 minutes after 30 mg in 0.5 ml ethanol on back of rats
Experimental: For fluorescence microscopy studies, 30 mg of 5-(dimethylamino)naphthalene-1-sulfonic acid or its HPC, N-2-diethylaminoethyl 5-dimethylamino-1-naphthalenesulfonamide.HCl salt was dissolved in 0.5 ml of 75% ethanol and applied to the shaved back of rats (3×3 cm). 15 minutes or 3 hours later, the rat was killed and organs were taken out and frozen. The frozen tissues (brain, liver, and muscle) were sliced and stained with Haematoxylin and eosin (H&E) staining. Results were shown picture 1-9 in FIG. 9.

[2] = Distribution in organs of rabbits after transdermal HPC of ibuprofen; assay type: in vivo; details: for distribution in brain / distribution in cartilage pads / distribution in heart / distribution in prostate gland / distribution in testis: 2 hr after 0.3 mol/kg HPC of ibuprofen (10% aqueous) on shaved back; for distribution in Myelin: 2 hr after HPC of ibuprofen (10% aqueous) on shaved back
Source text: (§1) A HPC changed quickly to its parent drug in vivo, so the concentration was the concentration of its parent drug or related compound.

[3] = test system: rats given sterilized E. coli suspension as a pyrogen; test: Antipyretic activity of ibuprofen and its HPC (Study A); assay type: in vivo
[4] = Amounts of ibuprofen in Beagle dogs cartilage tissue; assay type: in vivo; details: 18 hours after administration
[5] = Amount of ibuprofen in rat plasma and brain, 0.3 mmol/kg
Experimental: The plasma or brain tissue (the whole brain was washed with pH 7.4 buffer for 3 times) was homogenized immediately in 3-5 ml of methanol, using a tissue tearor at 30,000 rpm (about 2 min.).

[6] = Distribution in organs of rats after transdermal HPC of ibuprofen; details: 2 hr after 0.3 mmol/kg HPC of ibuprofen (10% aqueous) on shaved back
Source text: as §1

[7] = Amount of ibuprofen in Beagle dogs synovial fluid, 0.3 mmol/kg; assay type: in vivo
mice (aging) = test: Lifespan of mice; assay type: in vivo
Experimental: 60 mice (10 weeks old, 30.3±3.5 g) were divided into groups A and B. In group A (n=30), 0.05 ml of distilled water (˜2 cm^2) was applied to the back of mice once per day. In group B (n=30), […] of diethylaminoethyl acetylsalicylate citric acid (the HPC of aspirin) in 0.05 ml of water (10%) was applied to the back of mice (˜2 cm^2) once per day.

[8] = test system: Smyth chickens (animal models of vitiligo); test: Anti-vitiligo activity in Smyth chickens; assay type: in vivo; details: 50 mg/kg (5% in pure water) on discoloured lesions once per day for 10 weeks
Experimental: 20 Smyth chickens (animal models of vitiligo) were allocated to 2 groups. Group A (n=10) chickens received 1 ml of pure water on discoloured lesions once per day for 10 weeks. Group B (n=10) Smyth chicken received 50 mg/kg of diethylaminoethyl acetylsalicylate citric acid (5% in pure water) on discoloured lesions once per day for 10 weeks. In the untreated control group A, the lesions were worse and feather loss continued. In the diethylaminoethyl acetylsalicylate citric acid treated group B, the discoloured lesions disappeared and feathers regrew with 3-6 weeks.

[9] = test system: spontaneously hypertensive rats (SLAC/SHR); test: Anti-hypertensive activity in spontaneously hypertensive rats; assay type: in vivo; details: 50 mg/kg (10% in water) on back skin once per day
Experimental: 20 spontaneously hypertensive rats (SLAC/SHR, 19 weeks old, 300-350 g) were divided into 2 groups randomly. In group A, pure water (0.5 ml) was applied to the rats' back skin (˜5 cm^2, fur was cut off) once per day for 6 weeks. In groups B, 50 mg/kg of diethylaminoethyl acetylsalicylate citric acid salt (10% in water) was applied to the rats' back skin (˜5 cm^2, fur was cut off) once per day.

[10] = Distribution in milk of sheep after transdermal HPC of ibuprofen; assay type: in vivo; details: female, topical, 2 hr after 0.3 mmol/kg diethylaminoethyl 2-(ρ-isobutylphenyl)propionate.citric acid salt on back, read-out: amount found in the milk
Source text: as §1

[11] = 20 mg/kg, transdermally, t = 0 min.
[12] = 20 mg/kg, transdermally, t = 90 min.
[13] = 20 mg/kg, transdermally, t = 180 min.
[14] = 20 mg/kg, transdermally, t = 270 min.
[15] = 50 mg/kg, transdermally, t = 0 min.
[16] = 50 mg/kg, transdermally, t = 90 min.
[17] = 50 mg/kg, transdermally, t = 180 min.
[18] = 50 mg/kg, transdermally, t = 270 min.
[19] = 100 mg/kg, orally, t = 270 min.
[20] = 100 mg/kg, transdermally, t = 0 min.
[21] = 100 mg/kg, transdermally, t = 90 min.
[22] = 100 mg/kg, transdermally, t = 180 min.
[23] = 100 mg/kg, transdermally, t = 270 min.

Br.CCN(CC)CCOC(=O)/C=C(C)/C=C/C=C(C)\C=C\C1=C(C)CCCC1(C)C [N,N-diethylaminoethyl 9-cis-retinoate.HBr]
solubility in water (Solubility in water): 30 mg/mL

CCN(CC)CCNS(=O)(=O)c1cccc2c(N(C)C)cccc12.Cl [N-2-diethylaminoethyl 5-dimethylamino-1-naphthalenesulfonamide.HCl salt]
fluorescence chemical entering brain, muscle, and liver [1]: large amount of the fluorescence chemical had entered the brain, muscle, and liver

CCN(CC)CCOC(=O)C(C)c1ccc(CC(C)C)cc1.Cl (stereo not drawn) [diethylaminoethyl 2-(ρ-isobutylphenyl)propionate.HCl]
distribution in brain [2]: 0.4 ± 0.2 nmol/g | distribution in cartilage pads [2]: 0.4 ± 0.2 nmol/g | distribution in heart [2]: 0.3 ± 0.1 nmol/g | distribution in prostate gland [2]: 0.5 ± 0.3 nmol/g | distribution in testis [2]: 0.5 ± 0.3 nmol/g | distribution in Myelin [2]: 0.60 ± 0.2 nmol/g | body temperature ([3]; 20 mg/kg, orally, t = 0 min.): 37.6 ± 0.3 | body temperature ([3]; 20 mg/kg, orally, t = 90 min.): 37.1 ± 0.3 | body temperature ([3]; 20 mg/kg, orally, t = 180 min.): 36.9 ± 0.3 | body temperature ([3]; 20 mg/kg, orally, t = 270 min.): 36.8 ± 0.2 | body temperature [3, 11]: 37.6 ± 0.2 | body temperature [3, 12]: 36.7 ± 0.4 | body temperature [3, 13]: 36.6 ± 0.5 | body temperature [3, 14]: 36.5 ± 0.3 | body temperature ([3]; 50 mg/kg, orally, t = 0 min.): 37.6 ± 0.3 | body temperature ([3]; 50 mg/kg, orally, t = 90 min.): 36.6 ± 0.3 | body temperature ([3]; 50 mg/kg, orally, t = 180 min.): 36.5 ± 0.3 | body temperature ([3]; 50 mg/kg, orally, t = 270 min.): 36.4 ± 0.2 | body temperature [3, 15]: 37.5 ± 0.4 | body temperature [3, 16]: 36.5 ± 0.3 | body temperature [3, 17]: 36.4 ± 0.3 | body temperature [3, 18]: 36.5 ± 0.2 | body temperature ([3]; 100 mg/kg, orally, t = 0 min.): 37.5 ± 0.4 | body temperature ([3]; 100 mg/kg, orally, t = 90 min.): 36.5 ± 0.3 | body temperature ([3]; 100 mg/kg, orally, t = 180 min.): 36.4 ± 0.3 | body temperature [3, 19]: 36.4 ± 0.2 | body temperature [3, 20]: 37.5 ± 0.3 | body temperature [3, 21]: 36.5 ± 0.2 | body temperature [3, 22]: 36.4 ± 0.3 | body temperature [3, 23]: 36.5 ± 0.2 | Amount of ibuprofen in cartilage tissue ([4]; intramuscularly): 17.2 ± 6.1 nmol/g | Amount of ibuprofen in cartilage tissue ([4]; transdermally): 22.5 ± 4.5 nmol/g | ibuprofen in Plasma (18 hr) ([5]; intramuscularly): 0.5 ± 0.2 nmol/mL | ibuprofen in Plasma (18 hr) ([5]; transdermally): 2.9 ± 2 nmol/mL | distribution in brain [6]: 0.1 ± 0.05 nmol/g | distribution in heart [6]: 0.5 ± 0.2 nmol/g | distribution in kidney [6]: 0.4 ± 0.2 nmol/g | distribution in liver [6]: 0.2 ± 0.2 nmol/g | distribution in pancreas [6]: 0.5 ± 0.3 nmol/g | distribution in stomach [6]: 0.3 ± 0.1 nmol/g | ibuprofen in synovial fluid ([7]; intramuscularly, 1 hour): 28.1 ± 8.1 nmol/g | ibuprofen in synovial fluid ([7]; intramuscularly, 8 hours): 22.1 ± 4.2 nmol/g | ibuprofen in synovial fluid ([7]; intramuscularly, 18 hours): 4.2 ± 1.1 nmol/g | ibuprofen in synovial fluid ([7]; transdermally, 1 hour): 11.6 ± 4.2 nmol/g | ibuprofen in synovial fluid ([7]; transdermally, 8 hours): 28.2 ± 4.7 nmol/g | ibuprofen in synovial fluid ([7]; transdermally, 18 hours): 11.2 ± 3.2 nmol/g

CCN(CC)CCOC(=O)c1ccccc1OC(C)=O.O=C(O)CC(O)(CC(=O)O)C(=O)O [diethylaminoethyl acetylsalicylate citric acid salt]
Lifespan (mice (aging); 0.5 mg in 0.05 ml of water on back once per day, n=30): 38.2 ± 4.6 month | increase of the lifespan of mice (mice (aging); mouse, in vivo): 27% | time until discoloured lesions disappeared and feathers regrew [8]: 3-6 weeks | Blood pressure (week 0), Systolic [9]: 184.6 ± 15.1 mmHg | Blood pressure (week 0), diastolic [9]: 118.2 ± 13.1 mmHg | Blood pressure (week 2 to week 6), Systolic [9]: 115.4 ± 14.6 mmHg | Blood pressure (week 2 to week 6), diastolic [9]: 83.5 ± 12.1 mmHg

CC(C)Cc1ccc(C(C)C(=O)O)cc1 (stereo not drawn) [ibuprofen, 2-(ρ-isobutylphenyl)propionic acid, reference compound]
distribution in brain [2]: 5 ± 1 nmol/g | distribution in cartilage pads [2]: 8 ± 2 nmol/g | distribution in heart [2]: 10 ± 5 nmol/g | distribution in prostate gland [2]: 18 ± 7 nmol/g | distribution in testis [2]: 11 ± 4 nmol/g | distribution in Myelin [2]: 25 ± 8 nmol/g | body temperature ([3]; 20 mg/kg, orally, t = 0 min.): 37.5 ± 0.2 | body temperature ([3]; 20 mg/kg, orally, t = 90 min.): 37.6 ± 0.3 | body temperature ([3]; 20 mg/kg, orally, t = 180 min.): 37.5 ± 0.3 | body temperature ([3]; 20 mg/kg, orally, t = 270 min.): 37.4 ± 0.3 | body temperature [3, 11]: 37.5 ± 0.3 | body temperature [3, 12]: 37.5 ± 0.5 | body temperature [3, 13]: 37.8 ± 0.4 | body temperature [3, 14]: 37.9 ± 0.3 | body temperature ([3]; 50 mg/kg, orally, t = 0 min.): 37.5 ± 0.3 | body temperature ([3]; 50 mg/kg, orally, t = 90 min.): 37.6 ± 0.3 | body temperature ([3]; 50 mg/kg, orally, t = 180 min.): 37.2 ± 0.3 | body temperature ([3]; 50 mg/kg, orally, t = 270 min.): 37.1 ± 0.3 | body temperature [3, 15]: 37.6 ± 0.3 | body temperature [3, 16]: 37.8 ± 0.3 | body temperature [3, 17]: 37.9 ± 0.3 | body temperature [3, 18]: 38.1 ± 0.3 | body temperature ([3]; 100 mg/kg, orally, t = 0 min.): 37.5 ± 0.3 | body temperature ([3]; 100 mg/kg, orally, t = 90 min.): 37.4 ± 0.4 | body temperature [3, 19]: 36.7 ± 0.3 | body temperature [3, 20]: 37.6 ± 0.4 | body temperature [3, 21]: 37.9 ± 0.4 | body temperature [3, 22]: 37.8 ± 0.3 | body temperature [3, 23]: 37.8 ± 0.2 | antipyretic activity ([3]; transdermal administration): did not show any antipyretic activity | concentration at 2 h [10]: 30 ± 8 µM | concentration at 1 h ([5]; male, rat, in vivo): 1430 ± 68 µM | concentration at 8 h ([5]; male, rat, in vivo): 313 ± 39 µM | ibuprofen in synovial fluid ([7]; intramuscularly, 1 hour): 3.2 ± 0.3 nmol/g | ibuprofen in synovial fluid ([7]; intramuscularly, 8 hours): 0.3 ± 0.1 nmol/g
